Common to all, as to assay: Inhibitory effect on growth of human cancer cells (in vitro), WST-8
What all share (assay type): cell-based
(Tetrazolium assays rely on reduction of a dye to a coloured formazan, in cell work by metabolically active cells.)

The subject of assay [1] is human colorectal cancer HCT116 cells. To be noted: 96 hours culture. On the procedure: (§1) Each pyrrole compound of the present invention was studied for its effects on the growth of human non-small cell lung cancer A549 cells and human colorectal cancer HT-29 cells and HCT116 cells. The cells of each line were suspended in an RPMI1640 medium supplemented with 10% fetal bovine serum and inoculated at a cell density of 1000 cells/50 μL/well to a 96-well plate. After overnight culture, each compound diluted with a medium was added thereto at a concentration of 50 μL/well, and the cells were further cultured for 96 hours. After the completion of culture, WST-8 (Seikagaku Corp.) was added thereto at a concentration of 10 μL/well, and the cells were cultured at 37° C. for approximately 1 hour under 5% CO2 conditions, followed by measurement of absorbance at 450 nm.

The subject of assay [2] is human non-small cell lung cancer A549 cells. The note with it: 96 hours culture. Here is the method: as §1
Assay [3] concerns human colorectal cancer HT-29 cells. The note with it: 96 hours culture, read-out: IC50 (nM) HT29. Here is the method: as §1

Where a name gives a salt, the structure may show the parent alone. Read-outs that look alike come from different tables or passages of the source.

A word on the IC50: it is the concentration that inhibits the measured activity by half. `COc1ccc(Br)cc1C(=O)c1c(CO)[nH]c(-c2nnc(C3CC3)o2)c1C` [Compound 259, (5-bromo-2-methoxyphenyl)(5-(5-cyclopropyl-1,3,4-oxadiazol-2-yl)-2-(hydroxymethyl)-4-methyl-1H-pyrrol-3-yl)methanone]: the IC50 came out at 39.2 nM in assay [1] (Homo sapiens, HCT-116, 96 h); 69.5 nM in assay [2] (Homo sapiens, A549, 96 h); 37.2 nM in assay [3] (Homo sapiens, HT-29, 96 h).

Consider `Cc1[nH]c(-c2nnn(CCO)n2)c(C)c1C(=O)c1ccc(OCCN)c(Br)c1` [Compound 168, (4-(2-aminoethoxy)-3-bromophenyl)(5-(2-(2-hydroxyethyl)-2H-tetrazol-5-yl)-2,4-dimethyl-1H-pyrrol-3-yl)methanone], for which the IC50 in assay [1] (Homo sapiens, HCT-116, 96 h) amounted to 506 nM; in assay [2] (Homo sapiens, A549, 96 h), 886 nM; in assay [3] (Homo sapiens, HT-29, 96 h), 670 nM.

On to `Cc1[nH]c(-c2nnc(CCO)o2)c(C)c1C(=O)c1cccc(Br)c1` [Compound 205, (3-bromophenyl)(5-(5-(2-hydroxyethyl)-1,3,4-oxadiazol-2-yl)-2,4-dimethyl-1H-pyrrol-3-yl)methanone], for which the IC50 was determined as 37 nM in assay [1] (Homo sapiens, HCT-116, 96 h); 64.9 nM in assay [2] (Homo sapiens, A549, 96 h); 20.3 nM in assay [3] (Homo sapiens, HT-29, 96 h).

On to `Cc1[nH]c(-c2nnc(C3CC3)o2)c(C)c1C(=O)c1cc(Br)ccc1O` [Compound 241, (5-bromo-2-hydroxyphenyl)(5-(5-cyclopropyl-1,3,4-oxadiazol-2-yl)-2,4-dimethyl-1H-pyrrol-3-yl)methanone], for which the IC50 in assay [1] (Homo sapiens, HCT-116, 96 h) is 1.4 nM; in assay [2] (Homo sapiens, A549, 96 h), 2.1 nM; in assay [3] (Homo sapiens, HT-29, 96 h), 2.6 nM.

For the molecule `CCc1nnc(-c2c(C)c(C(=O)c3cccc(Br)c3)c(C)n2C(=O)COC(C)=O)o1` [Compound 226, 2-(3-(3-bromobenzoyl)-5-(5-ethyl-1,3,4-oxadiazol-2-yl)-2,4-dimethyl-1H-pyrrol-1-yl)-2-oxoethyl acetate], the IC50 in assay [1] (Homo sapiens, HCT-116, 96 h) was 0.4 nM; in assay [2] (Homo sapiens, A549, 96 h), 0.7 nM; in assay [3] (Homo sapiens, HT-29, 96 h), 0.3 nM.

In the case of `Cc1[nH]c(-c2nnc(CO)o2)c(C)c1C(=O)c1cc(Br)ccc1O` [Compound 203, (5-bromo-2-hydroxyphenyl)(5-(5-(hydroxymethyl)-1,3,4-oxadiazol-2-yl)-2,4-dimethyl-1H-pyrrol-3-yl)methanone], the IC50 in assay [1] (Homo sapiens, HCT-116, 96 h) was determined as 152 nM; in assay [2] (Homo sapiens, A549, 96 h), 210 nM; in assay [3] (Homo sapiens, HT-29, 96 h), 171 nM.

Regarding `CCc1cnc(-c2[nH]c(C)c(C(=O)c3cccc(Br)c3)c2C)o1` [Compound 272, (3-bromophenyl) (5-(5-ethyloxazol-2-yl)-2,4-dimethyl-1H-pyrrol-3-yl)methanone], the IC50 in assay [1] (Homo sapiens, HCT-116, 96 h) came out at 48.4 nM; in assay [2] (Homo sapiens, A549, 96 h) it was 66.6 nM; in assay [3] (Homo sapiens, HT-29, 96 h), 42 nM.

Turning to `Cc1c(-c2nnc(C3CC3)o2)[nH]c(C=O)c1C(=O)c1cccc(Br)c1` [Compound 261, 3-(3-bromobenzoyl)-5-(5-cyclopropyl-1,3,4-oxadiazol-2-yl)-4-methyl-1H-pyrrole-2-carboaldehyde], the IC50 in assay [1] (Homo sapiens, HCT-116, 96 h) was 88.9 nM; in assay [2] (Homo sapiens, A549, 96 h), 12.9 nM; in assay [3] (Homo sapiens, HT-29, 96 h) it was 9.4 nM.

Regarding `CC(=O)OCc1nnc(-c2[nH]c(C)c(C(=O)c3cccc(Br)c3)c2C)o1` [Compound 210, (5-(4-(3-bromobenzoyl)-3,5-dimethyl-1H-pyrrol-2-yl)-1,3,4-oxadiazol-2-yl)methyl acetate], the IC50 in assay [1] (Homo sapiens, HCT-116, 96 h) was 42.9 nM; in assay [2] (Homo sapiens, A549, 96 h) it was 205 nM; in assay [3] (Homo sapiens, HT-29, 96 h), 39.3 nM.

As for `Cc1nnc(-c2[nH]c(C)c(C(=O)c3cccc(Br)c3)c2C)o1` [Compound 185, (3-bromophenyl) (2,4-dimethyl-5-(5-methyl-1,3,4-oxadiazol-2-yl)-1H-pyrrol-3-yl)methanone], the IC50 was found to be 2.9 nM in assay [1] (Homo sapiens, HCT-116, 96 h); 9.1 nM in assay [2] (Homo sapiens, A549, 96 h); 1.8 nM in assay [3] (Homo sapiens, HT-29, 96 h).

In the case of `COc1ccc(C(=O)c2c(/C=N\O)[nH]c(-c3nnn(CCOC(C)=O)n3)c2C)cc1Br` [Compound 170, (Z)-2-(5-(4-(3-bromo-4-methoxybenzoyl)-5-((hydroxyimino)methyl)-3-methyl-1H-pyrrol-2-yl)-2H-tetrazol-2-yl)ethyl acetate], the IC50 worked out at 133 nM in assay [1] (Homo sapiens, HCT-116, 96 h); 197 nM in assay [2] (Homo sapiens, A549, 96 h); 143 nM in assay [3] (Homo sapiens, HT-29, 96 h).

With `COc1ccc(C(=O)c2c(C3SCCCS3)[nH]c(-c3nnc(C4CC4)o3)c2C)cc1Br` [Compound 262, (3-bromo-4-methoxyphenyl)(5-(5-cyclopropyl-1,3,4-oxadiazol-2-yl)-2-(1,3-dithian-2-yl)-4-methyl-1H-pyrrol-3-yl)methanone], the IC50 was found to be 902 nM in assay [1] (Homo sapiens, HCT-116, 96 h); 905 nM in assay [2] (Homo sapiens, A549, 96 h); 845 nM in assay [3] (Homo sapiens, HT-29, 96 h).

Turning to `CCc1nnc(-c2[nH]c(C)c(C(=O)c3ccc(OC)c(Br)c3)c2C)o1` [Compound 197, (3-bromo-4-methoxyphenyl)(5-(5-ethyl-1,3,4-oxadiazol-2-yl)-2,4-dimethyl-1H-pyrrol-3-yl)methanone], the concentration for half-maximal inhibition (IC50) in assay [1] (Homo sapiens, HCT-116, 96 h) was 1.4 nM; in assay [2] (Homo sapiens, A549, 96 h), 3.9 nM; in assay [3] (Homo sapiens, HT-29, 96 h) it was 0.9 nM.

Take `Cc1noc(-c2[nH]c(C)c(C(=O)c3cccc(Br)c3)c2C)n1` [Compound 271, (3-bromophenyl) (2,4-dimethyl-5-(3-methyl-1,2,4-oxadiazol-5-yl)-1H-pyrrol-3-yl)methanone]: the IC50 in assay [1] (Homo sapiens, HCT-116, 96 h) turned out to be 50.4 nM; in assay [2] (Homo sapiens, A549, 96 h), 92.9 nM; in assay [3] (Homo sapiens, HT-29, 96 h), 44.1 nM.

Regarding `COc1ccc(C(=O)c2c(C(C)O)[nH]c(-c3nnn(CCOC(C)=O)n3)c2C)cc1Br` (stereo not drawn) [Compound 130, 2-(5-(4-(3-bromo-4-methoxybenzoyl)-5-(1-hydroxyethyl)-3-methyl-1H-pyrrol-2-yl)-2H-tetrazol-2-yl)ethyl acetate], the IC50 stood at 36.9 nM in assay [1] (Homo sapiens, HCT-116, 96 h); 35.5 nM in assay [2] (Homo sapiens, A549, 96 h); 30.7 nM in assay [3] (Homo sapiens, HT-29, 96 h).

In the case of `COc1ccc(C(=O)c2c(C(F)F)[nH]c(-c3nnn(CCO)n3)c2C)cc1Br` [Compound 127, (3-bromo-4-methoxyphenyl)(2-(difluoromethyl)-5-(2-(2-hydroxyethyl)-2H-tetrazol-5-yl)-4-methyl-1H-pyrrol-3-yl)methanone], the IC50 in assay [1] (Homo sapiens, HCT-116, 96 h) was found to be 40.4 nM; in assay [2] (Homo sapiens, A549, 96 h) it was 44.7 nM; in assay [3] (Homo sapiens, HT-29, 96 h), 36.9 nM.

With `CCn1nnc(-c2[nH]c(C)c(C(=O)c3cccc(OCCN)c3)c2C)n1` [Compound 165, (3-(2-aminoethoxy)phenyl)(5-(2-ethyl-2H-tetrazol-5-yl)-2,4-dimethyl-1H-pyrrol-3-yl)methanone], the IC50 in assay [1] was found to be 40.2 nM; in assay [2] (Homo sapiens, A549, 96 h), 359 nM; in assay [3] (Homo sapiens, HT-29, 96 h), 126 nM.

As to `Cc1[nH]c(-c2nnn(CCOC(=O)CN)n2)c(C)c1C(=O)c1cccc(Br)c1` [Compound 297, 2-(5-(4-(3-bromobenzoyl)-3,5-dimethyl-1H-pyrrol-2-yl)-2H-tetrazol-2-yl)ethyl 2-aminoacetate hydrochloride], the IC50 was found to be 7.3 nM in assay [1] (hydrochloride), 12.2 nM in assay [2] (hydrochloride) and 8.2 nM in assay [3] (hydrochloride).

Consider `Cc1[nH]c(-c2nnc(C(F)F)o2)c(C)c1C(=O)c1cccc(Br)c1` [Compound 186, (3-bromophenyl)(5-(5-(difluoromethyl)-1,3,4-oxadiazol-2-yl)-2,4-dimethyl-1H-pyrrol-3-yl)methanone], for which the IC50 in assay [1] (Homo sapiens, HCT-116, 96 h) came out at 64.1 nM; in assay [2] (Homo sapiens, A549, 96 h) it was 289 nM; in assay [3] (Homo sapiens, HT-29, 96 h), 41.7 nM.

As for `Cc1[nH]c(-c2nnc(C3CC3)o2)c(C)c1C(=O)c1cccc(Br)c1` [Compound 177, (3-bromophenyl)(5-(5-cyclopropyl-1,3,4-oxadiazol-2-yl)-2,4-dimethyl-1H-pyrrol-3-yl)methanone], the IC50 in assay [1] (Homo sapiens, HCT-116, 96 h) amounted to 0.4 nM; in assay [2] (Homo sapiens, A549, 96 h), 1.5 nM; in assay [3] (Homo sapiens, HT-29, 96 h), 0.4 nM.

For `COc1ccc(C(=O)c2c(C(N)=O)[nH]c(-c3nnn(CCO)n3)c2C)cc1Br` [Compound 150, 3-(3-bromo-4-methoxybenzoyl)-5-(2-(2-hydroxyethyl)-2H-tetrazol-5-yl)-4-methyl-1H-pyrrole-2-carboxamide], the IC50 in assay [1] (Homo sapiens, HCT-116, 96 h) turned out to be 181 nM; in assay [2] (Homo sapiens, A549, 96 h) it was 192 nM; in assay [3] (Homo sapiens, HT-29, 96 h), 145 nM.

For the molecule `COc1ccc(C(=O)c2c(CO)[nH]c(-c3nnn(CCOC(C)=O)n3)c2C)cc1Br` [Compound 128, 2-(5-(4-(3-bromo-4-methoxybenzoyl)-5-(hydroxymethyl)-3-methyl-1H-pyrrol-2-yl)-2H-tetrazol-2-yl)ethyl acetate], the IC50 in assay [1] (Homo sapiens, HCT-116, 96 h) stood at 22.4 nM; in assay [2] (Homo sapiens, A549, 96 h) it was 27.8 nM; in assay [3] (Homo sapiens, HT-29, 96 h), 27.4 nM.

Turning to `Cc1c(-c2nnc(C3CC3)o2)[nH]c(C2SCCCS2)c1C(=O)c1cccc(Br)c1` [Compound 200, (3-bromophenyl) (5-(5-cyclopropyl-1,3,4-oxadiazol-2-yl)-2-(1,3-dithian-2-yl)-4-methyl-1H-pyrrol-3-yl)methanone], the IC50 in assay [1] (Homo sapiens, HCT-116, 96 h) turned out to be 647 nM; in assay [2] (Homo sapiens, A549, 96 h) it was 389 nM; in assay [3] (Homo sapiens, HT-29, 96 h) it was 209 nM.

Consider `Cc1[nH]c(-c2nnn(CCO)n2)c(Br)c1C(=O)c1cccc(Br)c1` [Compound 288, (4-bromo-5-(2-(2-hydroxyethyl)-2H-tetrazol-5-yl)-2-methyl-1H-pyrrol-3-yl)(3-bromophenyl)methanone], for which the 50% inhibitory concentration (IC50) was found to be 7.1 nM in assay [1] (Homo sapiens, HCT-116, 96 h); 8.2 nM in assay [2] (Homo sapiens, A549, 96 h); 6.7 nM in assay [3] (Homo sapiens, HT-29, 96 h).

Turning to `Cc1[nH]c(-c2nnn(CCN)n2)c(Br)c1C(=O)c1cccc(Br)c1` [Compound 290, (5-(2-(2-aminoethyl)-2H-tetrazol-5-yl)-4-bromo-2-methyl-1H-pyrrol-3-yl)(3-bromophenyl)methanone], the IC50 in assay [1] (Homo sapiens, HCT-116, 96 h) amounted to 184 nM; in assay [2] (Homo sapiens, A549, 96 h) it was 167 nM; in assay [3] (Homo sapiens, HT-29, 96 h) it was 123 nM.

The values are drawn from US20140343017A1, “PYRROLE COMPOUND” (Kabushiki Kaisha Yakult Honsha, priority 2012, published 2014).
